Data as given in patent publication US9816994B2, “Method for treating a blood component containing sample” (ARKRAY, Inc., priority 2012, dated 2017).

What was measured:
[1] = tested on: MCF-7 breast cancer cells; experiment: Assessment of damage to cancer cells (trypan blue survival rate), MCF-7; type: cell-based, human; details: 10 minutes after a contact with surfactant, 2.5 w/v %
Method: (§1) Cells of SNU-1, MCF-7, SW620, PC3, and NCI-358 derived from gastric cancer, breast cancer, large intestinal cancer, prostate cancer, and lung cancer were prepared to be 2×10^6 Cells/ml and used. The cancer cells were prepared in the following manner. 50 μL of a cancer cell suspension in the serum-including medium and 50 μL of the aqueous solution of the surfactant were added into the 1.5 ml microcentrifuge tube, stirred with pipetting so as to make the solution homogeneous. Later, the solution was allowed to stand at an ambient temperature of 23° C. for about 10 minutes so as to proceed the reaction. Then, the reaction liquid in the microcentrifuge tube was stirred with pipetting so as to disperse the cells, and subsequently, 50 μL of the liquid was dispensed into another microcentrifuge tube and 50 μL of 0.4% trypan blue stain solution (Invitrogen) was mixed therein. This was injected into a counting chamber so as to count living cells that had not been stained with the trypan blue. Provided that the number of cells in a reaction liquid to which distilled water had been added in place of the reagent being 100%, the survival rate was calculated from the number of cells survived 10 minutes after (Example 1) and 30 minutes after (Example 2) from the reaction with the aqueous solution of the surfactant. […]

[2] = tested on: SW620 large intestinal cancer cells; experiment: Assessment of damage to cancer cells (trypan blue survival rate), SW620; type: cell-based, human; details: 10 minutes after a contact with surfactant, 2.5 w/v %
Method: as §1

[3] = tested on: SNU-1 gastric cancer cells; experiment: Assessment of damage to cancer cells (trypan blue survival rate), SNU-1; type: cell-based, human; details: 10 minutes after a contact with surfactant, 2.5 w/v %
Method: as §1, with “Then, the reaction liquid in the microcentrifuge tube was stirred with pipetting so as to disperse the cells, and subsequently, 50 μL of the liquid was dispensed into another microcentrifuge tube and 50 μL of 0.4% trypan blue stain solution (Invitrogen) was mixed therein. This was injected into a counting chamber so as to count living cells that had not been stained with the trypan blue.” left out
A mixture of the surfactant No. 1 and either the surfactant No. 2 or No. 3 was prepared at a mixing ratio of 10:0 to 0:10 (weight ratio: the total concentration of the surfactants was 2.5 w/v %). […] The survival rate was calculated from the number of cells survived after the reaction with the mixture of surfactants, provided that the number of cells in a reaction liquid to which distilled water had been added in place of the reagent being 100%. […]

[4] = tested on: PC3 prostate cancer cells; experiment: Assessment of damage to cancer cells (trypan blue survival rate), PC3; type: cell-based, human; details: 10 minutes after a contact with surfactant, 2.5 w/v %
Method: as §1

[5] = tested on: NCI-H358 lung cancer cells; experiment: Assessment of damage to cancer cells (trypan blue survival rate), NCI-H358; type: cell-based, human; details: 10 minutes after a contact with surfactant, 2.5 w/v %
Method: as §1

[6] = tested on: erythrocytes; experiment: Measurement of lysis time of erythrocytes (absorbance at 650 nm, micro-plate reader); type: cell-based, human
Method: As a sample containing erythrocytes, blood that had been collected from a vein of a healthy person by use of a vacuum blood-collecting vessel (EDTA including 2K) was used. 30 μL of the sample containing the blood was dispensed onto a 96-well microplate, in which 30 μL of the aqueous solution of surfactant was mixed and stirred five times with pipetting, thereby allowing the reaction solution to react homogeneously. The absorbance was measured every one minute with a micro-plate reader. The moment at which the absorbance became 0.5 or lower at a wavelength of 650 nm was determined as the lysis of the blood cells. The results are shown in Table 3 below (Examples 1 and 2). In Examples 1 and 2, the absorbance reached 0.5 within the time period from 30 minutes to 60 minutes after starting the measurement. On the other hand, in Comparative Example 9 where the aqueous solution of the surfactant was replaced by distilled water, the absorbance did never reach 0.5 even 60 minutes after from the start of the measurement. The micro-plate reader used herein was Thermo Labsystems Multiskan Ascent 35 manufactured by Thermo Labsystems.

[7] = tested on: leukocytes; experiment: Assessment of damage to leukocytes (trypan blue survival rate); type: cell-based
Method: Leukocytes were separated from 10 ml of fresh blood in accordance with HetaSep protocol (manufactured by STEMCELL (trade name) Technologies), which was suspended in 1 ml of PBS(−) and collected in a 1.5 ml disposable microtube (a microcentrifuge tube with trade name of DSP-MC-15A manufactured by Nichiryo Co., Ltd.). Since a small amount of erythrocytes were still included in the separated leukocytes, the erythrocytes were eliminated by using ammonium chloride (supplied by STEMCELL (trade name) Technologies) in accordance with the attached document, and the leukocytes were collected through centrifugation, washed in PBS(−), and then suspended in 1 ml of a serum-including medium. 50 μL of leukocyte suspension in the serum-including medium and 50 μL of the aqueous solution of the surfactant were mixed in the 1.5 ml microcentrifuge tube, and the mixed solution was stirred with pipetting about five times so that the solution would be homogeneous. […] Provided that the number of cells in a reaction liquid to which distilled water had been added in place of the reagent being 100%, the survival rate was calculated from the number of cells survived 10 minutes after (Example 1) and 30 minutes after (Example 2) from the reaction with the aqueous solution of surfactant.

polyoxyethylene octyl dodecylether (EO=25) [Surfactant No. 1]
Cancer cell survival rate (%) MCF-7 Breast cancer [1]: 112.3%
Cancer cell survival rate (%) SW620 Large intestinal cancer [2]: 81%
Cancer cell survival rate (%) SNU-1 Gastric cancer [3]: 86.1%
Cancer cell survival rate (%) PC3-9 Prostate cancer [4]: 101.8%
Cancer cell survival rate (%) MCI-358 Lung cancer [5]: 89.9%
Lysis time to reach absorbance of 0.5 ([6]; surfactant (2.5 w/v %), mixing ratio 2:8 (No. 1 is 80%)): 30 to 60 min
Lysis time to reach absorbance of 0.5 ([6]; surfactant used alone, preparation concentration 2.5 w/v %): 30 to 60 min
selectivity of lowering survival rate, leukocytes against cancer cells ([7]; 2.5 w/v % aqueous solution, 10 and 30 minutes): lower selectively the survival rate of the leukocytes rather than cancer cells
Leukocyte survival rate (%) ([7]; 10 minutes after contact, 2.5 w/v %, 23° C., distilled water = 100%): 71.8%
